Results as given in ChEMBL document CHEMBL2375302, “Synthesis, antimicrobial, antiquorum-sensing, antitumor and cytotoxic activities of new series of fused [1,3,4]thiadiazoles” (Eur J Med Chem, 2013).
In brackets after ≈: the same amount, converted by molar mass.

Legend:
A498 = assay: Growth inhibition of human A498 cells at 10 uM after 48 hrs by coulter counter analysis relative to control; format: functional; settings: A498, 48 h, read-out: GI
Artemia salina = assay: (§1) Toxicity against brine shrimp larvae assessed as mortality after 24 hrs by binocular microscopic analysis; format: organism-based; settings: in vivo, 24 h
[1] = as §1; format: organism-based; settings: artemia salina, in vivo
LOX IMVI = assay: Growth inhibition of human LOXIMVI cells at 10 uM after 48 hrs by coulter counter analysis relative to control; format: functional; settings: read-out: GI
CAKI-1 = assay: Growth inhibition of human CAKI-1 cells at 10 uM after 48 hrs by coulter counter analysis relative to control; format: functional; settings: CAKI-1, 48 h, read-out: GI
UACC-257 = assay: Growth inhibition of human UACC257 cells at 10 uM after 48 hrs by coulter counter analysis relative to control; format: functional; settings: UACC-257, 48 h, read-out: GI
K562 = assay: Growth inhibition of human K562 cells at 10 uM after 48 hrs by coulter counter analysis relative to control; format: functional; settings: K562, 48 h, read-out: GI
T47D = assay: Growth inhibition of human T47D cells at 10 uM after 48 hrs by coulter counter analysis relative to control; format: functional; settings: read-out: GI
IGROV-1 = assay: Growth inhibition of human IGROV1 cells at 10 uM after 48 hrs by coulter counter analysis relative to control; format: functional; settings: IGROV-1, 48 h, read-out: GI
[2] = Toxicity against brine shrimp larvae assessed as mortality at 500 ug/mL after 24 hrs by binocular microscopic analysis relative to control; format: organism-based; settings: artemia salina, in vivo
Malme-3M = assay: Growth inhibition of human MALME-3M cells at 10 uM after 48 hrs by coulter counter analysis relative to control; format: functional; settings: read-out: GI
Hs-578T = assay: Growth inhibition of human Hs578T cells at 10 uM after 48 hrs by coulter counter analysis relative to control; format: functional; settings: read-out: GI
[3] = Toxicity against brine shrimp larvae assessed as mortality at 1000 ug/mL after 24 hrs by binocular microscopic analysis relative to control; format: organism-based; settings: artemia salina, in vivo
MDA-MB-435 = assay: Growth inhibition of human MDA-MB-435 cells at 10 uM after 48 hrs by coulter counter analysis relative to control; format: functional; settings: MDA-MB-435, 48 h, read-out: GI
NCI-H23 = assay: Growth inhibition of human NCI-H23 cells at 10 uM after 48 hrs by coulter counter analysis relative to control; format: functional; settings: NCI-H23, 48 h, read-out: GI
Bacillus cereus = assay: Antibacterial activity against Bacillus cereus at 5 mg/mL after 24 hrs; format: functional; settings: read-out: DIZ
CCRF-CEM = assay: Growth inhibition of human CCRF-CEM cells at 10 uM after 48 hrs by coulter counter analysis relative to control; format: functional; settings: read-out: GI
ACHN = assay: Growth inhibition of human ACHN cells at 10 uM after 48 hrs by coulter counter analysis relative to control; format: functional; settings: read-out: GI
UACC-62 = assay: Growth inhibition of human UACC62 cells at 10 uM after 48 hrs by coulter counter analysis relative to control; format: functional; settings: UACC-62, 48 h, read-out: GI
MDA-MB-468 = assay: Growth inhibition of human MDA-MB-468 cells at 10 uM after 48 hrs by coulter counter analysis relative to control; format: functional; settings: MDA-MB-468, 48 h, read-out: GI
SK-MEL-2 = assay: Growth inhibition of human SK-MEL-2 cells at 10 uM after 48 hrs by coulter counter analysis relative to control; format: functional; settings: SK-MEL-2, 48 h, read-out: GI
Escherichia coli = assay: Antibacterial activity against Escherichia coli at 5 mg/mL after 24 hrs; format: functional; settings: read-out: DIZ
SK-MEL-5 = assay: Growth inhibition of human SK-MEL-5 cells at 10 uM after 48 hrs by coulter counter analysis relative to control; format: functional; settings: SK-MEL-5, 48 h, read-out: GI
OVCAR-4 = assay: Growth inhibition of human OVCAR4 cells at 10 uM after 48 hrs by coulter counter analysis relative to control; format: functional; settings: OVCAR-4, 48 h, read-out: GI
SW-620 = assay: Growth inhibition of human SW620 cells at 10 uM after 48 hrs by coulter counter analysis relative to control; format: functional; settings: SW-620, 48 h, read-out: GI
HOP-92 = assay: Growth inhibition of human HOP92 cells at 10 uM after 48 hrs by coulter counter analysis relative to control; format: functional; settings: HOP-92, 48 h, read-out: GI
SN12C = assay: Growth inhibition of human SN12C cells at 10 uM after 48 hrs by coulter counter analysis relative to control; format: functional; settings: read-out: GI
NCI-H460 = assay: Growth inhibition of human NCI-H460 cells at 10 uM after 48 hrs by coulter counter analysis relative to control; format: functional; settings: NCI-H460, 48 h, read-out: GI
HCT-15 = assay: Growth inhibition of human HCT15 cells at 10 uM after 48 hrs by coulter counter analysis relative to control; format: functional; settings: HCT-15, 48 h, read-out: GI
SF-295 = assay: Growth inhibition of human SF295 cells at 10 uM after 48 hrs by coulter counter analysis relative to control; format: functional; settings: SF-295, 48 h, read-out: GI
SF-268 = assay: Growth inhibition of human SF268 cells at 10 uM after 48 hrs by coulter counter analysis relative to control; format: functional; settings: SF-268, 48 h, read-out: GI
BT-549 = assay: Growth inhibition of human BT549 cells at 10 uM after 48 hrs by coulter counter analysis relative to control; format: functional; settings: BT-549, 48 h, read-out: GI
[4] = Toxicity against brine shrimp larvae assessed as mortality at 10 ug/mL after 24 hrs by binocular microscopic analysis relative to control; format: organism-based; settings: artemia salina, in vivo
DU-145 = assay: Growth inhibition of human DU145 cells at 10 uM after 48 hrs by coulter counter analysis relative to control; format: functional; settings: DU-145, 48 h, read-out: GI
OVCAR-3 = assay: Growth inhibition of human OVCAR3 cells at 10 uM after 48 hrs by coulter counter analysis relative to control; format: functional; settings: OVCAR-3, 48 h, read-out: GI
HL-60(TB) = assay: Growth inhibition of human HL-60(TB) cells at 10 uM after 48 hrs by coulter counter analysis relative to control; format: functional; settings: HL-60, 48 h, read-out: GI
COLO 205 = assay: Growth inhibition of human COLO205 cells at 10 uM after 48 hrs by coulter counter analysis relative to control; format: functional; settings: COLO 205, 48 h, read-out: GI
M14 = assay: Growth inhibition of human M14 cells at 10 uM after 48 hrs by coulter counter analysis relative to control; format: functional; settings: M14, 48 h, read-out: GI
[5] = Growth inhibition of human NCI-ADR-RES cells at 10 uM after 48 hrs by coulter counter analysis relative to control; format: functional; settings: read-out: GI
OVCAR-8 = assay: Growth inhibition of human OVCAR8 cells at 10 uM after 48 hrs by coulter counter analysis relative to control; format: functional; settings: OVCAR-8, 48 h, read-out: GI

| SMILES | inhibition of growth at 10 µM (A498) | LC90 (Artemia salina) | LC50 at 24 h [1] | inhibition of growth at 10 µM (LOX IMVI) | inhibition of growth at 10 µM (CAKI-1) | inhibition of growth at 10 µM (UACC-257) | inhibition of growth at 10 µM (K562) | inhibition of growth at 10 µM (T47D) | inhibition of growth at 10 µM (IGROV-1) | mortality at 24 h, 500 ug/mL [2] | inhibition of growth at 10 µM (Malme-3M) | inhibition of growth at 10 µM (Hs-578T) | mortality at 24 h, 1000 ug/mL [3] | inhibition of growth at 10 µM (MDA-MB-435) | inhibition of growth at 10 µM (NCI-H23) | zone of inhibition at 5000 µg/mL (Bacillus cereus) | inhibition of growth at 10 µM (CCRF-CEM) | inhibition of growth at 10 µM (ACHN) | inhibition of growth at 10 µM (UACC-62) | inhibition of growth at 10 µM (MDA-MB-468) | other results |
| --- | --- | --- | --- | --- | --- | --- | --- | --- | --- | --- | --- | --- | --- | --- | --- | --- | --- | --- | --- | --- | --- |
| CCOC(=O)C1C(=O)N=C2SC(S(N)(=O)=O)=NN2C1c1ccc(N(C)C)cc1 (stereo not given) | 16.5% | 728.74 µg/mL (≈ 1710 µM) | 405 µg/mL (≈ 951 µM) | 11.7% | 21.1% | < 10% | < 10% | < 10% | < 10% | 93.3% | 14.9% | 18.5% | 100% | 21.3% | < 10% | 5 mm | < 10% | < 10% | 13.7% | < 10% | inhibition of growth at 10 µM (SK-MEL-2): < 10%; zone of inhibition at 5000 µg/mL (Escherichia coli): < 2 mm; inhibition of growth at 10 µM (SK-MEL-5): < 10%; inhibition of growth at 10 µM (OVCAR-4): < 10%; inhibition of growth at 10 µM (SW-620): < 10%; inhibition of growth at 10 µM (HOP-92): 51.2%; inhibition of growth at 10 µM (SN12C): < 10%; inhibition of growth at 10 µM (NCI-H460): < 10%; inhibition of growth at 10 µM (HCT-15): < 10%; inhibition of growth at 10 µM (SF-295): < 10%; inhibition of growth at 10 µM (SF-268): < 10%; inhibition of growth at 10 µM (BT-549): < 10%; mortality at 24 h, 10 ug/mL [4]: 66.6%; inhibition of growth at 10 µM (DU-145): < 10%; inhibition of growth at 10 µM (OVCAR-3): < 10%; inhibition of growth at 10 µM (HL-60(TB)): 21%; inhibition of growth at 10 µM (COLO 205): < 10%; inhibition of growth at 10 µM (M14): < 10%; inhibition of growth at 10 µM [5]: < 10%; inhibition of growth at 10 µM (OVCAR-8): < 10% |
| N#Cc1cnc2sc(S(N)(=O)=O)nn2c1=O | 34.2% | 777.87 µg/mL (≈ 3020 µM) | 432 µg/mL (≈ 1680 µM) | 10.7% | < 10% | < 10% | < 10% | < 10% | < 10% | 83.3% | 28% | 12.8% | 96.6% | < 10% | < 10% | 2 mm | < 10% | < 10% | < 10% | < 10% | inhibition of growth at 10 µM (SK-MEL-2): < 10%; zone of inhibition at 5000 µg/mL (Escherichia coli): 5 mm; inhibition of growth at 10 µM (SK-MEL-5): < 10%; inhibition of growth at 10 µM (OVCAR-4): < 10%; inhibition of growth at 10 µM (SW-620): < 10%; inhibition of growth at 10 µM (HOP-92): 12.3%; inhibition of growth at 10 µM (SN12C): < 10%; inhibition of growth at 10 µM (NCI-H460): < 10%; inhibition of growth at 10 µM (HCT-15): < 10%; inhibition of growth at 10 µM (SF-295): < 10%; inhibition of growth at 10 µM (SF-268): < 10%; inhibition of growth at 10 µM (BT-549): < 10%; mortality at 24 h, 10 ug/mL [4]: 50%; inhibition of growth at 10 µM (DU-145): < 10%; inhibition of growth at 10 µM (OVCAR-3): < 10%; inhibition of growth at 10 µM (HL-60(TB)): 18.4%; inhibition of growth at 10 µM (COLO 205): < 10%; inhibition of growth at 10 µM (M14): < 10%; inhibition of growth at 10 µM [5]: < 10%; inhibition of growth at 10 µM (OVCAR-8): < 10% |
| N#Cc1cnc2sc(S(N)(=O)=O)nn2c1=N | 14.9% | 754.4 µg/mL (≈ 2940 µM) | 419 µg/mL (≈ 1640 µM) | 15.1% | 11.5% | < 10% | < 10% | < 10% | < 10% | 90% | < 10% | < 10% | 96.6% | < 10% | < 10% | < 2 mm | < 10% | < 10% | < 10% | < 10% | inhibition of growth at 10 µM (SK-MEL-2): < 10%; zone of inhibition at 5000 µg/mL (Escherichia coli): < 2 mm; inhibition of growth at 10 µM (SK-MEL-5): < 10%; inhibition of growth at 10 µM (OVCAR-4): < 10%; inhibition of growth at 10 µM (SW-620): < 10%; inhibition of growth at 10 µM (HOP-92): 20.3%; inhibition of growth at 10 µM (SN12C): < 10%; inhibition of growth at 10 µM (NCI-H460): < 10%; inhibition of growth at 10 µM (HCT-15): < 10%; inhibition of growth at 10 µM (SF-295): < 10%; inhibition of growth at 10 µM (SF-268): < 10%; inhibition of growth at 10 µM (BT-549): < 10%; mortality at 24 h, 10 ug/mL [4]: 73.3%; inhibition of growth at 10 µM (DU-145): < 10%; inhibition of growth at 10 µM (OVCAR-3): < 10%; inhibition of growth at 10 µM (HL-60(TB)): 29.3%; inhibition of growth at 10 µM (COLO 205): < 10%; inhibition of growth at 10 µM (M14): < 10%; inhibition of growth at 10 µM [5]: < 10%; inhibition of growth at 10 µM (OVCAR-8): < 10% |
